Measurements: patent publication US8765748B2, “Indazolyl, benzimidazolyl, benzotriazolyl substituted indolinone derivatives as kinase inhibitors useful in the treatment of cancer” (University Health Network, priority 2007, dated 2014)

Tests used:
Type in all cases: biochemical
human PLK4 = target: T1, human PLK4 (Homo sapiens, UniProt O00444); test: PLK4 Inhibition Assay (indirect ELISA); conditions: 15 μM ATP, 4 nM GST-PLK4; read-out: PLK4 IC50 Ranges
T1 construct: amino terminal GST fusion of residues 1-391 of human PLK4; made in house; host or cells: E. coli
T1 sequence (O00444 1-391): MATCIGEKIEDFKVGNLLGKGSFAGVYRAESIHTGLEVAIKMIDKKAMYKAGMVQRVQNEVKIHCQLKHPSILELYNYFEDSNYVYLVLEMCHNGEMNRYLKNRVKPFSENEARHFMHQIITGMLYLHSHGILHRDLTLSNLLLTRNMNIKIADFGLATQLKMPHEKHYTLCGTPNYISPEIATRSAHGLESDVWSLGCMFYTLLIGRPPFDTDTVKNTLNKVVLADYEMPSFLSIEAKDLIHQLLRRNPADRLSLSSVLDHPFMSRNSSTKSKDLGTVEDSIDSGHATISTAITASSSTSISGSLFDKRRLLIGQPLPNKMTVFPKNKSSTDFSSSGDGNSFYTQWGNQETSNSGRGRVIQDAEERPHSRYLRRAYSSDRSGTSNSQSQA
Experimental: The protein was purified from clarified cell extracts after induction at 15° C. overnight using glutathione sepharose, gel permeation chromatography, and ion exchange (Resource Q). The resulting protein was dephosphorylated with lambda phosphatase (NEB cat #P0753), and resolved from the phosphatase using gluthione sepharose. The dephosphorylated GST-PLK4 was stored in aliquots at −80° C. until use. PLK4 activity was measured using an indirect ELISA detection system. […] Compounds were pre-incubated in the presence of enzyme for 15 minutes prior to addition of ATP and the activity remaining quantified using the above described activity assay. […] The IC50 value was determined using a non-linear 4 point logistic curve fit (XLfit4, IDBS) with the formula; (A+(B/(1+((x/C)^D)))), where A=background value, B=range, C=inflection point, D=curve fit parameter.

Aurora B = target: T2, Aurora B (Homo sapiens, UniProt Q96GD4); test: Aurora B Inhibition Assay (Z-Lyte); conditions: 128 μM ATP, 28 nM Aurora B; read-out: Aurora B IC50 Ranges
T2 construct: purchased Invitrogen PV3970
T2 sequence (Q96GD4 whole entry): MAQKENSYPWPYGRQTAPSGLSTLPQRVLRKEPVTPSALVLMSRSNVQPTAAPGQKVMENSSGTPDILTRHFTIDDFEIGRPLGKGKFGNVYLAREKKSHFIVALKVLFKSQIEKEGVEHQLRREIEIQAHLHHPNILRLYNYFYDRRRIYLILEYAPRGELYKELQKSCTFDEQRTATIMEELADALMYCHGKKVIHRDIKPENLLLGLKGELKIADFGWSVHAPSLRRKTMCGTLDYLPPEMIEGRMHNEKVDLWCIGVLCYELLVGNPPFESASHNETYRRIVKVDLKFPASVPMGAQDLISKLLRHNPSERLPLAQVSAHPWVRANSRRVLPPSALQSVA
Experimental: Aurora B inhibition was determined using the Z-Lyte assay kit from Invitrogen. The assay was performed using the recommended manufacturer's instructions with 128 μM ATP and 28 nM Aurora B (Invitrogen cat #PV3970). The % inhibition values were determined according to the manufacturer's directions and IC50 values were obtained using a non-linear 4 point logistic curve fit (XLfit4, IDBS)

PLK1 = target: T3, PLK1 (Homo sapiens, UniProt P53350); test: PLK1 Inhibition Assay (Z-Lyte); conditions: 25 μM ATP, 8 nM PLK1; read-out: PLK1 IC50 Ranges
T3 construct: purchased Invitrogen PV3501
T3 sequence (P53350 whole entry): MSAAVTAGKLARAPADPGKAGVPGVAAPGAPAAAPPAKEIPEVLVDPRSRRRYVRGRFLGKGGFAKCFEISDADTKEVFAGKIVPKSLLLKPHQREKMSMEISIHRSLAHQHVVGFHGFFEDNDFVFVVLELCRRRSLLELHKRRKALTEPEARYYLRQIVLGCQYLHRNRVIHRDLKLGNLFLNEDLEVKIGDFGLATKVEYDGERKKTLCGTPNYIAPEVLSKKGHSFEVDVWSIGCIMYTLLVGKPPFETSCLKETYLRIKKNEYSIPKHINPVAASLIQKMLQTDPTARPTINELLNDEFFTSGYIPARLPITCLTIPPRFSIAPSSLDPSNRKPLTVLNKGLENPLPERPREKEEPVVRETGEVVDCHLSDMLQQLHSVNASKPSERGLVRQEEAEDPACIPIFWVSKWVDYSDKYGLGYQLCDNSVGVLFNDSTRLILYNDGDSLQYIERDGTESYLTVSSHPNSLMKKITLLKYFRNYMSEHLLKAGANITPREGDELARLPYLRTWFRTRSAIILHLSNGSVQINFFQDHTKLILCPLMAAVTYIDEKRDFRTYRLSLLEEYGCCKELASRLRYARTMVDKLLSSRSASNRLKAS
Experimental: PLK1 inhibition was determined using the Z-Lyte assay kit from Invitrogen (cat #PV3802). […] The % inhibition values were determined according to the manufacturer's directions and IC50 values were obtained using a non-linear 4 point logistic curve fit (XLfit4, IDBS)

| SMILES | IC50 (human PLK4) | IC50 (Aurora B) | IC50 (PLK1) |
| --- | --- | --- | --- |
| CC(=O)Nc1ccc2c(c1)NC(=O)/C2=C/c1ccc2[nH]ncc2c1 [Example A18] | < 5 µM |  | 5 to 50 µM |
| CN(C)S(=O)(=O)Nc1ccc2c(c1)/C(=C\c1ccc3cn[nH]c3c1)C(=O)N2 [Example A20, N′-[(3E)-3-(1H-indazol-6-ylmethylidene)-2-oxo-2,3-dihydro-1H-indol-5-yl]-N,N-dimethylsulfamide] | < 5 µM |  | < 5 µM |
| CN(C)S(=O)(=O)Nc1ccc2c(c1)/C(=C\c1ccc3nn[nH]c3c1)C(=O)N2 [Example A21, N′-[(3E)-3-(1H-benzotriazol-5-ylmethylidene)-2-oxo-2,3-dihydro-1H-indol-5-yl]-N,N-dimethylsulfamide] | < 5 µM |  | 5 to 50 µM |
| CC(C)NC(=O)Nc1cccc2c1NC(=O)/C2=C/c1ccc2cn[nH]c2c1 [Example A48, (E)-1-(3-((1H-indazol-6-yl)methylene)-2-oxoindolin-7-yl)-3-isopropyl-urea] | < 5 µM |  |  |
| C/C(=C1\C(=O)Nc2ccccc21)c1ccc2cn[nH]c2c1 [Example A51, (E)-3-(1-(1H-indazol-6-yl)ethylidene)indolin-2-one] | < 5 µM | 5 to 50 µM |  |
| O=C1Nc2ncccc2/C1=C\c1ccc2[nH]ncc2c1 [Example A68, (E)-3-((1H-indazol-5-yl)methylene)-1H-pyrrolo[2,3-b]pyridin-2(3H)-one] | < 5 µM |  |  |
| O=C1Nc2ccccc2C1=Nc1ccc2cn[nH]c2c1 [Example A73, (E and Z)-3-(1H-indazol-6-ylimino)indolin-2-one] | < 5 µM |  |  |
| Cc1ccc2c(c1)C(=Nc1ccc3cn[nH]c3c1)C(=O)N2 [Example A74, (E and Z)-3-(1H-indazol-6-ylimino)-5-methylindolin-2-one] | < 5 µM |  |  |
| O=C1Nc2ccc(F)cc2C1=Nc1ccc2cn[nH]c2c1 [Example A75, (E and Z)-3-(1H-indazol-6-ylimino)-5-fluoroindolin-2-one] | 5 to 50 µM |  |  |
| O=C1Nc2cc(Br)ccc2C1=Nc1ccc2cn[nH]c2c1 [Example A76, (E and Z)-3-(1H-indazol-6-ylimino)-6-bromoindolin-2-one] | 5 to 50 µM |  |  |
| O=C1Nc2ccccc2C1=Nc1ccc2[nH]ncc2c1 [Example A77, (E and Z)-3-(1H-indazol-5-ylimino)indolin-2-one] | 5 to 50 µM |  |  |
| Cc1ccc2c(c1)C(=Nc1ccc3[nH]ncc3c1)C(=O)N2 [Example A78, (E and Z)-3-(1H-indazol-5-ylimino)-5-methylindolin-2-one] | < 5 µM |  |  |
| O=C1Nc2ccc(F)cc2C1=Nc1ccc2[nH]ncc2c1 [Example A79, (E and Z)-3-(1H-indazol-5-ylimino)-5-fluoroindolin-2-one] | 5 to 50 µM |  |  |
| O=C1Nc2cccc(Br)c2/C1=C/c1ccc2cn[nH]c2c1 [Example A133, (Z)-3-((1H-indazol-6-yl)methylene)-4-bromoindolin-2-one] | < 5 µM |  |  |
| O=C1Nc2ccc(Cl)nc2/C1=C\c1ccc2cn[nH]c2c1 [Example A134, (E)-3-((1H-indazol-6-yl)methylene)-5-chloro-1H-pyrrolo[3,2-b]pyridin-2(3H)-one] | < 5 µM |  |  |
| COc1cc2c(cc1OC)/C(=C\c1ccc3cn[nH]c3c1)C(=O)N2 [Example A135, (E)-3-((1H-indazol-6-yl)methylene)-5,6-dimethoxyindolin-2-one] | < 5 µM |  |  |

Further lines, results first:

| IC50 (human PLK4) | IC50 (Aurora B) | IC50 (PLK1) | SMILES |
| --- | --- | --- | --- |
| < 5 µM | < 5 µM |  | O=C1Nc2ccccc2C1=Cc1cc(/C=C/c2ccncc2)c2cn[nH]c2c1 (mixture of isomers) [Example A55, (E and Z)-3-((4-((E)-2-(pyridin-4-yl)vinyl)-1H-indazol-6-yl)methylene)indolin-2-one] |
| < 5 µM | < 5 µM |  | CN(C)CCN(C)S(=O)(=O)c1ccc2c(c1)C(=Cc1ccc3c(/C=C/c4ccncc4)n[nH]c3c1)C(=O)N2 (mixture of isomers) [Example A129, (E and Z)—N-(2-(dimethylamino)ethyl)-N-methyl-2-oxo-3-((3-((E)-2-(pyridin-4-yl)vinyl)-1H-indazol-6-yl)methylene)indoline-5-sulfonamide] |
| < 5 µM | < 5 µM |  | CN(C)CCCNc1ccc2c(c1)C(=Cc1ccc3c(/C=C/c4ccncc4)n[nH]c3c1)C(=O)N2 (mixture of isomers) [Example A130, (E and Z)-5-(3-(dimethylamino)propylamino)-3-((3-((E)-2-(pyridin-4-yl)-vinyl)-1H-indazol-6-yl)methylene)indolin-2-one] |
| 5 to 50 µM |  | 5 to 50 µM | CNC(=O)c1ccc2c(c1)/C(=C\c1ccc3cn[nH]c3c1)C(=O)N2 [Example A8, (E)-3-((1H-indazol-6-yl)methylene)-N-methyl-2-oxoindoline-5-carboxamide] |
| < 5 µM |  | 5 to 50 µM | CC(C)(C)OC(=O)Nc1ccc2c(c1)/C(=C\c1ccc3cn[nH]c3c1)C(=O)N2 [Example A12, (E)-tert-butyl 3-((1H-indazol-6-yl)methylene)-2-oxoindolin-5-ylcarbamate] |
| < 5 µM |  | > 50 µM | O=C1Nc2ccc(OC(F)(F)F)cc2/C1=C\c1ccc2nn[nH]c2c1 [Example A14, (E)-3-((1H-benzo[d][1,2,3]triazol-5-yl)methylene)-5-(trifluoromethoxy)indolin-2-one] |
| < 5 µM |  | 5 to 50 µM | Nc1ccc2c(c1)/C(=C\c1ccc3cn[nH]c3c1)C(=O)N2 [Example A15, (E)-3-((1H-indazol-6-yl)methylene)-2-oxoindolin-5-aminium 2,2,2-trifluoroacetate] |
| 5 to 50 µM |  | 5 to 50 µM | CC(=O)Nc1ccc2c(c1)NC(=O)/C2=C/c1ccc2nn[nH]c2c1 [Example A17, (E)-N-(3-((1H-benzo[d][1,2,3]triazol-5-yl)methylene)-2-oxoindolin-6-yl)acetamide] |
| < 5 µM |  | 5 to 50 µM | CC(=O)Nc1ccc2c(c1)/C(=C\c1ccc3nn[nH]c3c1)C(=O)N2 [Example A23, (E)-N-(3-((1H-benzo[d][1,2,3]triazol-5-yl)methylene)-2-oxoindolin-5-yl)acetamide] |
| < 5 µM |  |  | O=C1Nc2ccccc2/C1=C\c1cc(Cl)c2cn[nH]c2c1 [Example A52, (E)-3-((4-chloro-1H-indazol-6-yl)methylene)indolin-2-one] |
| < 5 µM |  |  | O=C1Nc2ccccc2/C1=C/c1cc(Br)c2cn[nH]c2c1 [Example A53b, (Z)-3-((4-bromo-1H-indazol-6-yl)methylene)indolin-2-one] |
| < 5 µM |  |  | O=C1Nc2ccccc2/C1=C\c1ccc2c(/C=C/c3ccc(C(F)(F)F)cc3)n[nH]c2c1 [Example A65, (E & Z)-3-((3-((E)-4-(trifluoromethyl)styryl)-1H-indazol-6-yl)-methylene)-indolin-2-one] |
| < 5 µM | < 5 µM |  | COc1ccc2c(c1)/C(=C\c1ccc3c(/C=C/c4cccc[n+]4[O-])n[nH]c3c1)C(=O)N2 [Example A88, 2-((E)-2-(6-((E)-(5-methoxy-2-oxoindolin-3-ylidene)methyl)-1H-indazol-3-yl)vinyl)pyridine 1-oxide] |
| < 5 µM |  |  | O=C1Nc2ccccc2/C1=C\c1ccc2c(-c3nccs3)n[nH]c2c1 [Example A92, (E)-3-((3-(thiazol-2-yl)-1H-indazol-6-yl)methylene)indolin-2-one] |
| < 5 µM |  |  | O=C1Nc2ccccc2/C1=C\c1ccc2c(C3CC3)n[nH]c2c1 [Example A102, (E)-3-((3-cyclopropyl-1H-indazol-6-yl)methylene)indolin-2-one] |
| < 5 µM | < 5 µM |  | CC(C)(C)OC(=O)Nc1ccc2c(c1)/C(=C\c1ccc3c(/C=C/c4ccncc4)n[nH]c3c1)C(=O)N2 [Example A121, tert-butyl(E)-2-oxo-3-((3-((E)-2-(pyridin-4-yl)vinyl)-1H-indazol-6-yl)methylene)indolin-5-ylcarbamate] |
| < 5 µM | < 5 µM |  | Nc1ccc2c(c1)/C(=C\c1ccc3c(/C=C/c4ccncc4)n[nH]c3c1)C(=O)N2 [Example A122, (E)-5-amino-3-((3-((E)-2-(pyridin-4-yl)vinyl)-1H-indazol-6-yl)-methylene)indolin-2-one bis(2,2,2-trifluoroacetate)] |
|  | < 5 µM |  | COc1ccc2c(c1)/C(=C\c1ccc3c(/C=C/c4ccc(CN(C)C)cc4)n[nH]c3c1)C(=O)N2 [Example A136a, (E)-3-((3-(4-((dimethylamino)methyl)styryl)-1H-indazol-6-yl)-methylene)-5-methoxyindolin-2-one 2,2,2-trifluoroacetate] |
